Measurements taken from US20150141340A1, “METHOD OF TREATING AND PREVENTING OCULAR ANGIOGENESIS” (Yale University, priority 2012, published 2015).

Experiments:
[1] = system: ischemia triggered neovascularization; experiment: Retinopathy of prematurity model (ROP); type: in vivo, mouse; settings: administration 2 days after switching from hyperoxia to room air; vs AP injected eyes
Experimental: Next, cavtratin was tested in an additional model of ocular angiogenesis, retinopathy of prematurity model (ROP). Exposure to hyperoxia during early retinal development leads to the arrest or retardation of normal retinal vascular development. When the animals are returned to the normoxic environment, they are under a relative hypoxic situation where the retina now lacks its normal vasculature that is required to adequately support the neural tissue in normoxic conditions. This ischemic situation results in unregulated, abnormal neovascularization. The neovascular response is very consistent, reproducible and quantifiable, and it has become integral model for studying disease mechanisms and potential treatments for ischemic retinopathy. The mouse ROP model has become the most common model for studying pathologic angiogenesis and has been extended to the general study of ischemic retinopathies and related anti-angiogenic treatments. […] Cavtratin induced attenuation of ischemia triggered neovascularization is shown in FIG. 8, where the left panels are representative of two AP injected eyes and right panels are from cavtratin injections.

[2] = system: choroidal neovascularization (CNV); experiment: Laser-induced choroidal neovascularization (CNV) model, isolectin b4 labeling; type: in vivo, mice
From the text: Experiments were designed to examine whether treatment with cavtratin is useful in disease models of excessive ocular angiogenesis. To induce choroidal neovascularization (CNV), a model for retinal angiogenesis in mice, three 532 nm diode laser spots were applied to each fundus of the eye using a coverslip as a contact lens. The lesions were placed between the retinal vessels 2-3 disc diameters from the optic nerve. Formation of a bubble indicates rupture of the Bruch's membrane, a critical factor in driving CNV. Cavtratin was dissolved into acetic acid and diluted into saline. […] After treatment and injury, CNV was visualized by immunofluorescent labeling with isolectin b4, a marker for angiogenic blood vessels. CNV area was quantified as isolectin positive vessels per area measured.
Since mechanistically cavtratin reduces vascular permeability, vascular leakage was examined after CNV damage.
Further, it was examined whether the effects of cavtratin treatment synergizes with anti-VEGF. Mice were injected with either cavtratin (0.05 nmol) one day prior to laser damage, anti-VEGF (5 μg) 2 days after damage, or were treated with both cavtratin and anti-VEGF.

## cavtratin: fusion peptide comprising an antennapedia homeodomain internalization sequence fused to a caveolin-1 scaffolding domain; SEQ ID NO: 13 (RQIKIWFQNRRMKWKKDGIWKASFTTFTVTKYWFYR; Antennapedia-caveolin-1 scaffolding domain fusion peptide)
[1]
  ischemia triggered neovascularization: attenuation of extensive, ischemia triggered neovascualization
[2]; 0.5 nmol intraocular (1 microliter) prior to laser damage and again 2 days after, sacrificed after 4 additional days, vs AP control, N=17-18 eyes, P<0.05
  CNV area (isolectin positive vessels per area measured): reduced CNV
[2]; anti-VEGF administration as comparator (FIG. 3, FIG. 4), reduced to a level comparable to anti-VEGF
  CNV, dose dependence: dose-dependently reduces CNV
